Laboratory results published in patent US20250074946A1, “USE OF SE-DR AFFINITY PEPTIDE IN PREPARING DRUG FOR TREATING RHEUMATIC DISEASE” (HEBEI FITNESS BIOTECHNOLOGY CO., LTD., priority 2021, published 2025).
Where no end group is shown, it is not given here.

Key:
[1] = tested on: CIA mice infected with chronic hepatitis B; experiment: CIA mice infected with chronic hepatitis B (Example 8); format: in vivo, mouse
Outline: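 DBA/1 mice given rAAV8-1.3HBV (1×10^12 vg/mL) i.v.; 2 days later immunised intradermally with bovine CII/CFA (100 μg collagen), boosted i.p. at day 21 with CII/IFA. Randomised at paw score 1; drugs i.v. every other day for 27 days. Paw inflammation scores, serum viral and liver-function markers measured.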

CIA mice = format: in vivo, mouse
Procedure: Male DBA/1 mice were used to establish CIA model. Methods: Mice were immunized by intradermally injecting an emulsion of bovine C II and CFA (containing 100 μg collagen) at the tail head. After 21 days, the mice were boosted once by intraperitoneally injecting an emulsion of bovine C II and IFA (containing 100 μg collagen). […] Another 10 female DBA/1 mice were not subjected to model establishment and set as the control group. PBS was administrated to both the model group and the control group. Corresponding drugs were administrated to the mice in each group by tail vein injection at the volume of 10 mL/kg, once every other day, for 28 consecutive days, followed by a recovery period of 28 days. The inflammation score of the four paws of the mice in each group was evaluated during the administration (once every other day), and the area under the curve (AUC) of the inflammation score was calculated during the administration. During drug discontinuation, the inflammation scores of the four paws of the […] in each group were continuously evaluated (once every other day), and the rats were sacrificed on day 28 after drug discontinuation. HE staining was performed on the ankle joint for tissue injury evaluation. The specific scoring criteria were as follows: 0=normal synovial tissue; 1=synovial hyperplasia and inflammatory cell infiltration; 2=pannus formation and cartilage erosion; 3=destruction of most of the cartilage with subchondral bone erosion; 4=loss of joint integrity, ankylosis.

[2] = tested on: immune system of healthy monkeys; experiment: Immune indicators of cynomolgus monkeys after one month of administration (Example 5); format: in vivo, cynomolgus monkey; conditions: once a day for 4 weeks, end of administration
Source text: Cynomolgus monkeys were used to investigate the effects of the SE-DR affinity peptide on the immune indicators of cynomolgus monkeys after continuous administration for one month. […] At the end of administration, the immune indicators, including the serum anti-FNS007 antibodies, the immunoglobulins of different serotypes, the serum complement, the peripheral blood T lymphocyte and the serum cytokines, were observed.

[3] = tested on: immune system of healthy rats; experiment: Immune indicators of SD rats after one month of administration (Example 4); format: in vivo, rat; conditions: once a day for 4 weeks, end of administration
Procedure: SD rats were used to investigate the effects of the SE-DR affinity peptides on the immune indicators of the rats after continuous administration for one month. […] At the end of administration, analysis was conducted on the serum anti-FNS007 antibodies, different types of serum immunoglobulins, the serum complement, the peripheral blood T lymphocyte and the serum cytokines.

PBMC = PBMC stimulation test, IL-6 in supernatant by ELISA; format: cell-based, human; conditions: PBMC 1×10^6 cell/ml, peptide 10 μg/ml, 5 days of culture
Outline: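 Human PBMC isolated from blood by Ficoll density centrifugation, seeded at 1×10^6 cell/ml in 1640 complete medium with peptide at final 10 μg/ml. Cultured 5 days; IL-6 in supernatant measured by ELISA.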

In the case of FKGEQAGAGE [APL2], the ALT level ([1]; at sacrifice, day 28) is reported as 45.88 ± 19.74 U/L, the “Hepatitis B activation rate (Ratio of ALT > 100 U/L)” value ([1]; at sacrifice, day 28) is reported as 0% and the “Observation on the daily condition of mice” value ([1]; during administration) is reported as “No abnormality”. For the same sequence, the “Inflammation score and area under the time curve (AUC)” value ([1]; peptides 50 μmol, Abatacept 100 μg, tail i.v. once every other day for 27 days) was 89.86 ± 46.14, the “inflammation score during drug discontinuation compared with that at the time of drug discontinuation” value (CIA mice; 28 days of observation after stopping at day 28) was “could maintain the therapeutic effect” and the “Pathological score during 28 days of drug discontinuation” value (CIA mice; HE staining of ankle joint, score 0-4) was 2.05 ± 0.87. The “AUC, during drug discontinuation (day 29-56)” value (CIA mice; inflammation score AUC after stopping administration at day 28) was 87.55 ± 40.08, the “Incidence of infection in mice” value (CIA mice; mouse, in vivo) was 0% and the “Observation on the daily state of mice” value (CIA mice; mouse, in vivo) was “No”. The CD3% [2] was 63.37 ± 16.35%, the CD4% [2] was 27.33 ± 6.66% and the CD8% [2] was 21.74 ± 4.37%. It also gave an IFN-γ [2] of 5.09 ± 0.52 pg/mL, an IL-2 [2] of 4.62 ± 0.86 pg/mL and an IL-4 [2] of 2.12 ± 0.42 pg/mL. The TNF-α [2] was 2.42 ± 0.51 pg/mL, the CD3% [3] was 37.4 ± 10.52% and the CD4% [3] was 19.77 ± 6.05%. It also gave a CD8% [3] of 17.29 ± 7.09%, an IFN-γ [3] of 2.47 ± 0.36 pg/mL and an IL-2 [3] of 3.69 ± 3.03 pg/mL. The IL-4 [3] was 1.96 ± 1.26 pg/mL, the TNF-α [3] was 5.13 ± 1.83 pg/mL and the “IL-6 levels in the supernatant” value (PBMC) was 2.3 ng/mL.
